Data: patent US7186831B2, “5-halo-2-alkyl[1,2,4]triazolo[1,5-a]pyrimidin-7-amines” (priority 2001, dated 2007)

Test: log P by HPLC
Format: physicochemical
Details: EEC directive 79/831 Annex V. A8 by HPLC (gradient method, acetonitrile/0.1% aqueous phosphoric acid)

Row | Compound | logP
1 | Cc1nc2nc(Cl)c(-c3ccccc3Cl)c(NCC#N)n2n1 [compound 403] | 2.03
2 | CCN(Cc1ccco1)c1c(-c2ccccc2Cl)c(Cl)nc2nc(C)nn12 [compound 404] | 3.56
3 | Cc1nc2nc(Cl)c(-c3ccc(F)cc3F)c(NC3CCCC3)n2n1 [compound 405] | 3.24
4 | Cc1nc2nc(Cl)c(-c3ccc(F)cc3F)c(NCC(F)(F)F)n2n1 [compound 406] | 2.68
5 | CC(=O)CC(C)(C)Nc1c(-c2ccc(F)cc2F)c(Cl)nc2nc(C)nn12 [compound 407] | 2.53
6 | Cc1nc2nc(Cl)c(-c3ccc(F)cc3F)c(NC3CCCCC3C(F)(F)F)n2n1 (centres unmarked) [compound 408] | 3.56
7 | Cc1nc2nc(Cl)c(-c3ccc(F)cc3F)c(NC3CCC(C(F)(F)F)CC3)n2n1 (centres unmarked) [compound 409] | 3.56
8 | CCOC(=O)CN(C)c1c(-c2ccc(F)cc2F)c(Cl)nc2nc(C)nn12 [compound 410] | 2.8
9 | Cc1nc2nc(Cl)c(-c3ccc(F)cc3F)c(N(C)CCC#N)n2n1 [compound 411] | 2.34
10 | Cc1nc2nc(Cl)c(-c3ccc(F)cc3F)c(N(C)CC#N)n2n1 [compound 412] | 2.34
11 | CCN(CCC#N)c1c(-c2ccc(F)cc2F)c(Cl)nc2nc(C)nn12 [compound 413] | 2.58
12 | CCOC(=O)CN(c1c(-c2ccc(F)cc2F)c(Cl)nc2nc(C)nn12)C1CC1 [compound 414] | 3.29
13 | CCCN(CCOC)c1c(-c2ccccc2Cl)c(Cl)nc2nc(C)nn12 [compound 416] | 3.36
14 | Cc1nc2nc(Cl)c(-c3c(F)cccc3F)c(N(C)C)n2n1 [compound 418] | 2.37
15 | CCNc1c(-c2c(F)cccc2F)c(Cl)nc2nc(C)nn12 [compound 419] | 2.31
16 | Cc1nc2nc(Cl)c(-c3c(F)cccc3F)c(NCC#N)n2n1 [compound 420] | 1.91
17 | Cc1nc2nc(Cl)c(-c3c(F)cccc3F)c(NC(C)(C)C(F)(F)F)n2n1 [compound 421] | 3.34
18 | CNc1c(-c2c(F)cccc2F)c(Cl)nc2nc(C)nn12 [compound 422] | 2.03
19 | Cc1nc2nc(Cl)c(-c3c(F)cccc3F)c(N3CCCCC3C(F)(F)F)n2n1 (centres unmarked) [compound 423] | 3.33
20 | Cc1nc2nc(Cl)c(-c3c(F)cccc3F)c(NCC(F)(F)F)n2n1 [compound 424] | 2.56
21 | Cc1nc2nc(Cl)c(-c3c(F)cccc3F)c(NC3CCCCC3C(F)(F)F)n2n1 (centres unmarked) [compound 425] | 3.52
22 | Cc1nc2nc(Cl)c(-c3c(F)cccc3F)c(N(O)C(C)C)n2n1 [compound 426] | 2.52
23 | Cc1nc2nc(Cl)c(-c3c(F)cccc3F)c(NOCc3ccccc3)n2n1 [compound 427] | 2.93
24 | Cc1nc2nc(Cl)c(-c3c(F)cccc3F)c(NOCc3cc(Cl)cc(Cl)c3)n2n1 [compound 428] | 3.75
25 | Cc1nc2nc(Cl)c(-c3c(F)cccc3F)c(NOCc3ccc(Cl)cc3Cl)n2n1 [compound 429] | 3.69
26 | Cc1nc2nc(Cl)c(-c3c(F)cccc3F)c(NOCc3ccc(C(F)(F)F)cc3)n2n1 [compound 430] | 3.44

Row | Compound | logP
27 | Cc1nc2nc(Cl)c(-c3c(F)cccc3F)c(NOCc3ccccc3Cl)n2n1 [compound 431] | 3.13
28 | Cc1nc2nc(Cl)c(-c3c(F)cccc3F)c(NOCc3ccc(F)cc3)n2n1 [compound 432] | 2.9
29 | Cc1nc2nc(Cl)c(-c3c(F)cccc3F)c(NOCc3cccc(C(F)(F)F)c3)n2n1 [compound 433] | 3.41
30 | CCCCONc1c(-c2c(F)cccc2F)c(Cl)nc2nc(C)nn12 [compound 434] | 2.96
31 | Cc1nc2nc(Cl)c(-c3c(F)cccc3F)c(NOCc3c(Cl)cccc3Cl)n2n1 [compound 435] | 3.31
32 | CONc1c(-c2c(F)cccc2F)c(Cl)nc2nc(C)nn12 [compound 436] | 2.07
33 | Cc1nc2nc(Cl)c(-c3ccccc3Cl)c(NC(C)C(F)(F)F)n2n1 (centres unmarked) [compound 437] | 3.1
34 | Cc1nc2nc(F)c(-c3ccccc3Cl)c(NC(C)C(F)(F)F)n2n1 (centres unmarked) [compound 438] | 2.97
35 | CCOC(=O)CN(c1c(-c2c(F)cccc2F)c(Cl)nc2nc(C)nn12)C1CC1 [compound 440] | 3
36 | Cc1ccc(Nc2c(-c3c(F)cccc3F)c(Cl)nc3nc(C)nn23)cc1 [compound 444] | 3.01
37 | Cc1nc2nc(Cl)c(-c3c(F)cccc3F)c(Nc3ccc(F)cc3)n2n1 [compound 445] | 2.71
38 | Cc1nc2nc(Cl)c(-c3c(F)cccc3F)c(N3CCCc4ccccc43)n2n1 [compound 446] | 3.34
39 | C=C(C)CN(CC)c1c(-c2ccccc2Cl)c(Cl)nc2nc(C3CC3)nn12 [compound 447] | 4.59
40 | C=C(C)CN(CC)c1c(-c2c(F)cccc2Cl)c(Cl)nc2nc(C3CC3)nn12 [compound 449] | 4.61
41 | CC(=O)NC1CCN(c2c(-c3ccc(F)cc3F)c(Cl)nc3nc(C)nn23)C1 (centres unmarked) [compound 450] | 1.73
42 | Cc1nc2nc(Cl)c(-c3ccc(F)cc3F)c(N3CC(C)CC(C)C3)n2n1 (centres unmarked) [compound 451] | 4.16
43 | COC(=O)C1CCCCN1c1c(-c2ccc(F)cc2F)c(Cl)nc2nc(C)nn12 (centres unmarked) [compound 453] | 3.36
44 | Cc1nc2nc(Cl)c(-c3ccc(F)cc3F)c(N3CC(C)OC(C)C3)n2n1 (centres unmarked) [compound 455] | 2.94
45 | Cc1cccc(Nc2c(-c3ccc(F)cc3F)c(Cl)nc3nc(C)nn23)c1 [compound 456] | 3
46 | CC(Nc1c(-c2c(F)cccc2Cl)c(Cl)nc2nc(C3CC3)nn12)C(F)(F)F (centres unmarked) [compound 457] | 3.59
47 | CC(C)CNc1c(-c2c(F)cccc2Cl)c(Cl)nc2nc(C3CC3)nn12 [compound 476] | 3.64
48 | CC(C)(C)CNc1c(-c2c(F)cccc2Cl)c(Cl)nc2nc(C3CC3)nn12 [compound 477] | 4.08
49 | CCC(C)Nc1c(-c2c(F)cccc2Cl)c(Cl)nc2nc(C3CC3)nn12 (centres unmarked) [compound 478] | 3.66
50 | Fc1cccc(Cl)c1-c1c(Cl)nc2nc(C3CC3)nn2c1NCC(F)(F)F [compound 481] | 3.19
51 | C=C(C)CNc1c(-c2c(F)cccc2Cl)c(Cl)nc2nc(C3CC3)nn12 [compound 483] | 3.31
52 | Clc1ccccc1-c1c(Cl)nc2nc(C3CC3)nn2c1N1CCCCO1 [compound 484] | 3.71

Results, then the compound that gave them:

Row | logP | Compound
53 | 1.95 | Cc1nc2nc(Cl)c(-c3ccc(F)cc3F)c(N3CCC(O)C3)n2n1 (centres unmarked) [compound 415]
54 | 2.85 | C=CC(C)Nc1c(-c2c(F)cc(F)cc2F)c(Cl)nc2nc(C)nn12 (centres unmarked) [compound 417]
55 | 2.3 | Cc1nc2nc(Cl)c(-c3c(F)cc(F)cc3F)c(NC3CC3F)n2n1 (centres unmarked) [compound 439]
56 | 1.19 | Cc1nc2nc(Cl)c(-c3c(F)cccc3F)c(N3CCC(N)C3)n2n1 (centres unmarked) [compound 441]
57 | 2.49 | CC(=O)C1CCN(c2c(-c3c(F)cccc3F)c(Cl)nc3nc(C)nn23)CC1 [compound 442]
58 | 2.85 | Cc1nc2nc(Cl)c(-c3c(F)cccc3F)c(N3CCC(F)CC3)n2n1 [compound 443]
59 | 4.49 | C=C(C)CN(CC)c1c(-c2c(F)cc(F)cc2F)c(Cl)nc2nc(C3CC3)nn12 [compound 448]
60 | 2.2 | Cc1nc2nc(Cl)c(-c3ccc(F)cc3F)c(N3CCCC(O)C3)n2n1 (centres unmarked) [compound 452]
61 | 2.96 | Cc1nc2nc(Cl)c(-c3ccc(F)cc3F)c(N3CCC(F)CC3)n2n1 [compound 454]
62 | 3.58 | CC(Nc1c(-c2c(F)cc(F)cc2F)c(Cl)nc2nc(C3CC3)nn12)C(F)(F)F (centres unmarked) [compound 458]
63 | 3.69 | CC(C)CNc1c(-c2c(F)cc(F)cc2F)c(Cl)nc2nc(C3CC3)nn12 [compound 460]
64 | 4.19 | CC(C)(C)CNc1c(-c2c(F)cc(F)cc2F)c(Cl)nc2nc(C3CC3)nn12 [compound 461]
65 | 3.69 | CCC(C)Nc1c(-c2c(F)cc(F)cc2F)c(Cl)nc2nc(C3CC3)nn12 (centres unmarked) [compound 462]
66 | 3.9 | Fc1cc(F)c(-c2c(Cl)nc3nc(C4CC4)nn3c2NC2CCCC2)c(F)c1 [compound 463]
67 | 3.35 | CC(C)Nc1c(-c2c(F)cc(F)cc2F)c(Cl)nc2nc(C3CC3)nn12 [compound 464]
68 | 3.43 | Fc1cc(F)c(-c2c(Cl)nc3nc(C4CC4)nn3c2NCC2CC2)c(F)c1 [compound 465]

Row | logP | Compound
69 | 3.34 | C=C(C)CNc1c(-c2c(F)cc(F)cc2F)c(Cl)nc2nc(C3CC3)nn12 [compound 466]
70 | 4.36 | CC(C)CN(C)c1c(-c2c(F)cc(F)cc2F)c(Cl)nc2nc(C3CC3)nn12 [compound 467]
71 | 3.29 | COCCN(C)c1c(-c2c(F)cc(F)cc2F)c(Cl)nc2nc(C3CC3)nn12 [compound 468]
72 | 4.27 | C=C(C)CN(C)c1c(-c2c(F)cc(F)cc2F)c(Cl)nc2nc(C3CC3)nn12 [compound 469]
73 | 3.64 | CCN(CCOC)c1c(-c2c(F)cc(F)cc2F)c(Cl)nc2nc(C3CC3)nn12 [compound 470]
74 | 3.9 | CC1CCCN1c1c(-c2c(F)cc(F)cc2F)c(Cl)nc2nc(C3CC3)nn12 (centres unmarked) [compound 471]
75 | 3.52 | Fc1cc(F)c(-c2c(Cl)nc3nc(C4CC4)nn3c2N2CCCC2)c(F)c1 [compound 472]
76 | 4.66 | CC1CCN(c2c(-c3c(F)cc(F)cc3F)c(Cl)nc3nc(C4CC4)nn23)CC1 [compound 473]
77 | 4.22 | Fc1cc(F)c(-c2c(Cl)nc3nc(C4CC4)nn3c2N2CCCCC2)c(F)c1 [compound 474]
78 | 3.02 | Fc1cc(F)c(-c2c(Cl)nc3nc(C4CC4)nn3c2N2CCOCC2)c(F)c1 [compound 475]
79 | 3.83 | Fc1cccc(Cl)c1-c1c(Cl)nc2nc(C3CC3)nn2c1NC1CCCC1 [compound 479]
80 | 3.4 | Fc1cccc(Cl)c1-c1c(Cl)nc2nc(C3CC3)nn2c1NCC1CC1 [compound 482]
81 | 3.74 | Fc1cc(F)c(-c2c(Cl)nc3nc(C4CC4)nn3c2N2CCCCO2)c(F)c1 [compound 485]
82 | 3.74 | Fc1cccc(Cl)c1-c1c(Cl)nc2nc(C3CC3)nn2c1N1CCCCO1 [compound 486]
83 | 3.42 | Fc1cc(F)c(-c2c(Cl)nc3nc(C4CC4)nn3c2N2CCCCN2)c(F)c1 [compound 487]
